These results are taken from PMC5912973 (ChemMedChem, 2018).

Where two headings read alike, the source gives them in different places.

The subject of one data set is HIVTPV-15 μM. The data set can be described thus: microbe, parasite or virus in culture. It is filed as cell-based, HIV-1.
In the next data set the test system is HIVDRV^RP20. The data set can be described thus: microbe, parasite or virus in culture. It is filed as cell-based, HIV-1. As to conditions: for fold change of IC50 relative to HIV-1NL4-3: HIVDRV^RP20 vs wild type.
In another data set the test system is HIVAPV-5 μM. The data set can be described thus: microbe, parasite or virus in culture. In kind it is cell-based, HIV-1.
For a further data set, the system named is HIVSQV-5 μM. Nature of the data set: microbe, parasite or virus in culture. In kind it is cell-based, HIV-1.
In a further data set the test system is HIVDRV^RP51. Nature of the data set: microbe, parasite or virus in culture. In kind it is cell-based, HIV-1. As to conditions: for fold change of IC50 relative to HIV-1NL4-3: HIVDRV^RP51 vs wild type.
Another data set concerns HIVDRV^RP30. Nature of the data set: microbe, parasite or virus in culture. It is filed as cell-based, HIV-1. As to conditions: for fold change of IC50 relative to HIV-1NL4-3: HIVDRV^RP30 vs wild type.
The next data set concerns HIVATV-5 μM. Nature of the data set: microbe, parasite or virus in culture. In kind it is cell-based, HIV-1.
The test system of another data set is HIVIDV-5 μM. The data set can be described thus: microbe, parasite or virus in culture. It is filed as cell-based, HIV-1.
For another data set, the system named is HIVLPV-5 μM. The data set can be described thus: microbe, parasite or virus in culture. In kind it is cell-based, HIV-1.
For a further data set, the system named is wild-type HIV-1NL4-3. Nature of the data set: Antiviral p24 assay in MT-4 cells, wild-type HIV-1NL4-3. It is filed as cell-based.
For a further data set, the system named is HIVNFV-5 μM. Nature of the data set: microbe, parasite or virus in culture. In kind it is cell-based, HIV-1.
The target in a further data set is HIV-1 protease (Human immunodeficiency virus type 1 group M subtype B, UniProt P04585). Nature of the data set: HIV-1 protease inhibitory activity, assay protocol of Toth and Marshall. In kind it is biochemical. The settings on record: as printed in text or footnote.
Data set [1] concerns the target dimerization of HIV-1 protease subunits (Human immunodeficiency virus type 1 group M subtype B, UniProt P12497). The data set can be described thus: FRET-based HIV-1 expression assay of protease dimerization in COS-7 cells. It is filed as cell-based.
For data set [2] the following is noted: brain concentration 32.6 nM at 360 min; ref [23]; cited from earlier work.
For a further data set, the system named is HIVLAI. Nature of the data set: Antiviral activity in MT-2 human T-lymphoid cells exposed to HIVLAI. In kind it is cell-based, HIV-1. The settings on record: MT-2/HIVLAI.
The mark [3] stands for this setting: read-out: IC50 ± SD, MT-4 cells, HIVDRV^RP20, p24 assay.
Where [4] appears, read: read-out: IC50 ± SD, MT-4 cells, HIVDRV^RP51, p24 assay.
[5] abbreviates: read-out: IC50 ± SD, MT-4 cells, HIVDRV^RP30, p24 assay.
The mark [6] stands for this setting: read-out: Mean IC50 ± SD, MT-4 cells, HIVATV-5 μM, p24 assay.
The mark [7] stands for this setting: read-out: IC50 ± SD, MT-4 cells, HIVNL4-3 WT, p24 assay.
Where [8] appears, read: Human immunodeficiency virus 1, MT4, read-out: Mean IC50 ± SD.
Where [9] appears, read: Human immunodeficiency virus 1, MT4, read-out: IC50 ± SD.

Take `COC(=O)N[C@H](C(=O)N[C@@H](Cc1ccccc1)[C@@H](O)CN(Cc1ccc(-c2ccccn2)cc1)NC(=O)[C@@H](NC(=O)OC)C(C)(C)C)C(C)(C)C` [ATV]: the “fold-change of IC50 vs HIVNL4-3 WT” value in the data set with HIVTPV-15 μM (HIVTPV-15 μM) is listed as over 192 fold; in the data set with HIVAPV-5 μM (HIVAPV-5 μM) it was 0.5 fold; with HIVSQV-5 μM (HIVSQV-5 μM), 105 fold; in the data set with HIVATV-5 μM (HIVATV-5 μM) it was over 192 fold; with HIVIDV-5 μM (HIVIDV-5 μM), 11 fold; with HIVLPV-5 μM (HIVLPV-5 μM) it was 7 fold. In addition, the “fold-change of IC50 vs HIVNL4-3 WT” value in the data set with HIVNFV-5 μM (HIVNFV-5 μM) was 3.7 fold. Moreover, the IC50 (in general, the concentration that inhibits the measured activity by half) with HIVTPV-15 μM (read-out: Mean IC50 ± SD, MT-4 cells, HIVTPV-15 μM, p24 assay) is over 1000 nM; in the data set on HIVDRV^RP20 (setting [3]), over 1000 nM; in the data set with HIVAPV-5 μM (read-out: Mean IC50 ± SD, MT-4 cells, HIVAPV-5 μM, p24 assay), 2.4 ± 0.7 nM; in the data set on HIVSQV-5 μM (read-out: Mean IC50 ± SD, MT-4 cells, HIVSQV-5 μM, p24 assay), 548 ± 177 nM; in the data set with HIVDRV^RP51 (setting [4]) it was over 1000 nM; with HIVDRV^RP30 (setting [5]), over 1000 nM. Further, the IC50 was over 1000 nM in the data set with HIVATV-5 μM (setting [6]); 59 ± 13 nM in the data set with HIVIDV-5 μM (read-out: Mean IC50 ± SD, MT-4 cells, HIVIDV-5 μM, p24 assay); 36 ± 9 nM in the data set with HIVLPV-5 μM (read-out: Mean IC50 ± SD, MT-4 cells, HIVLPV-5 μM, p24 assay); 5.2 ± 0.3 nM in the data set with wild-type HIV-1NL4-3 (setting [7]); 19 ± 1 nM with HIVNFV-5 μM (read-out: Mean IC50 ± SD, MT-4 cells, HIVNFV-5 μM, p24 assay). For the same compound, the “fold change of IC50 relative to HIV-1NL4-3” value in the data set on HIVDRV^RP20, in the data set with HIVDRV^RP51 and with HIVDRV^RP30 was over 192 fold throughout.

In the case of `CC(C)CN(C[C@@H](O)[C@H](Cc1ccccc1)NC(=O)O[C@H]1CO[C@H]2OCC[C@H]21)S(=O)(=O)c1ccc(N)cc1` [DRV, darunavir], the IC50 is 41 ± 3 nM in the data set with HIVTPV-15 μM (setting [8]); 60 ± 6 nM in the data set with HIVDRV^RP20 (setting [9]); 43 ± 22 nM in the data set on HIVAPV-5 μM (setting [8]); 22 ± 6 nM in the data set on HIVSQV-5 μM (setting [8]); 4670 ± 1260 nM in the data set on HIVDRV^RP51 (setting [9]); 134 ± 43 nM in the data set on HIVDRV^RP30 (setting [9]). For the same compound, the IC50 in the data set on HIVATV-5 μM (setting [8]) was found to be 26 ± 1 nM; in the data set with HIVIDV-5 μM (setting [8]), 42 ± 1 nM; in the data set with HIVLPV-5 μM (setting [8]), 275 ± 64 nM; in the data set on wild-type HIV-1NL4-3 (setting [9]), 3.7 ± 0.7 nM; in the data set with HIVNFV-5 μM (setting [8]) it was 6.1 ± 0.8 nM.

Turning to `CC(C)CN(C[C@@H](O)[C@H](Cc1cc(F)cc(F)c1)NC(=O)O[C@H]1C2CO[C@H]3OC[C@@H]1C3C2)S(=O)(=O)c1ccc(N)cc1` (stereo partly drawn) [Inhibitor 4, (3S,7 aS,8S)-Hexahydro-4H-3,5-methanofuro[2,3-b]pyran-8-yl((2S,3R)-4-((4-amino-N-isobutylphenyl)sulfonamido)-1-(3,5-difluorophenyl)-3-hydroxybutan-2-yl)carbamate], the figures for the “fold change of IC50 relative to HIV-1NL4-3” value in the data set with HIVDRV^RP20, in the data set with HIVDRV^RP51 and in the data set on HIVDRV^RP30 were 4 fold, 82 fold and 1.9 fold, respectively. The IC50 worked out at 24 ± 9 nM in the data set on HIVDRV^RP20 (setting [3]), 486 ± 52 nM in the data set on HIVDRV^RP51 (setting [4]), 11 ± 13 nM in the data set with HIVDRV^RP30 (setting [5]) and 5.9 ± 0.4 nM in the data set on wild-type HIV-1NL4-3 (setting [7]). Further, on HIV-1 protease, the Ki – broadly, a measure of affinity in units of concentration, obtained from inhibition or displacement – worked out at 0.004 nM.

Consider `CC(C)CN(C[C@@H](O)[C@H](Cc1cc(F)cc(F)c1)NC(=O)O[C@H]1C2CO[C@H]3OC[C@@H]1C3C2)S(=O)(=O)c1ccc2nc(NC3CC3)sc2c1` (stereo partly drawn) [Inhibitor 5, (3S,7 aS,8S)-Hexahydro-4H-3,5-methanofuro[2,3-b]pyran-8-yl((2S,3R)-4-((2-(cyclopropylamino)-N-isobutylbenzo[d]thiazole)-6-sulfonamido)-1-(3,5-difluorophenyl)-3-hydroxybutan-2-yl)carbamate], for which the “fold-change of IC50 vs HIVNL4-3 WT” value was determined as 0.02 fold in the data set on HIVTPV-15 μM (HIVTPV-15 μM); 0.0006 fold with HIVAPV-5 μM (HIVAPV-5 μM); 0.01 fold in the data set with HIVSQV-5 μM (HIVSQV-5 μM); 1.3 fold with HIVATV-5 μM (HIVATV-5 μM); 0.02 fold with HIVIDV-5 μM (HIVIDV-5 μM); 0.0002 fold in the data set with HIVLPV-5 μM (HIVLPV-5 μM). In the data set with HIVNFV-5 μM (HIVNFV-5 μM), the “fold-change of IC50 vs HIVNL4-3 WT” value is 0.04 fold. The figures for the “fold change of IC50 relative to HIV-1NL4-3” value in the data set with HIVDRV^RP20, in the data set with HIVDRV^RP51 and with HIVDRV^RP30 were 0.1 fold, 175 fold and 1 fold, respectively. In addition, the IC50 in the data set with HIVDRV^RP20 (setting [3]) turned out to be 0.0016 ± 0.002 nM; in the data set with HIVDRV^RP51 (setting [4]) it was 2.8 ± 0.2 nM; in the data set on HIVDRV^RP30 (setting [5]), 0.015 ± 0.015 nM; in the data set on HIVATV-5 μM (setting [6]), 0.02 ± 0.01 nM; with wild-type HIV-1NL4-3 (setting [7]), 0.016 ± 0.017 nM. The Ki at HIV-1 protease is 0.014 nM. Also, the “concentration at which dimerization of protease subunits is blocked” value in data set [1] came out at 0.1 nM. The “brain drug level relative to its IC50 value” in data set [2] is about 1880 fold. In addition, in the data set on HIVLAI (vs DRV), the “fold potency enhancement of antiviral IC50 over DRV” value is “more than 150 fold”. Also, the “fold improvement of antiviral IC50 over compound 4” value in the data set on HIVLAI (vs compound 4) was 100 fold. In the data set with HIVLAI (vs inhibitor 3), the “fold more potent than inhibitor 3 (antiviral)” value is “over 15 fold”.
